Results from patent US6869951B1, “Method of changing conformation of a matrix metalloproteinase” (Pharmacia Corporation, priority 1999, dated 2005).
Counter-ions that a name gives are not always drawn.

Tests used:
[1] = target: T1, MMP-8 catalytic domain (residues 85-242) (Homo sapiens, UniProt P22894); assay: X-ray crystallography of MMP-8 catalytic domain inhibitor complexes; conditions: X-ray crystal structure of the complex, IX, XI relative to compound XII
T1 construct: The catalytic domain (residues 85-242) of MMP-8, neutrophil collagenase, folds into a compact globular structure; made in house
Excerpt: The MMP-8 catalytic domain was cloned by PCR amplification from a cDNA contruct of full-length MMP-8. The amplified DNA was cloned into NdeI/HindIII restriction sites in an in-house pRec expression vector. Protein was expressed in a bacterial expression system by induction with nalidixic acid. Recombinant protein was expressed primarily as inclusion bodies. Purified protein was recovered in high yield following ion exchange chromatography of denatured protein.
Slow dehydration of the drop leads to formation of single crystals of the inhibitor complex. Details are below.
12 mg/ml MMP-8 in 10 mM MES pH 6.0, 100 mM NaCl, 5 mM CaCl2 pre-incubated with 1 mM inhibitor for 10 minutes at ambient temperature.
4 ul of the protein-inhibitor complex mixed with 6.8 ul 10% PEG6000 and 0.2 M MES pH 6.0
0.8 to 2.5 M sodium/potassium phosphate pH 6.0 (not mixed with protein/inhibitor/PEG drop).
Intensities from crystals of the enzyme inhibitor complexes were measured on a MAR image plate at −140° C. X-rays were generated from a rotating anode generator using a Cu target. The CuKα X-rays were focused onto the samples using long Pt and Ni mirrors.
The data were integrated and scaled using the program DENZO (Otwinowski, Z. and Minor W. in Proceedings of CCP4 Study Weekend: Data Collection and Processing (eds. Sawyer, L., Issacs, N., and Bailey, S.) pp. 56-62 (SERC Daresbury Laboratories, Warrington, UK 1993)).
Standard simulated annealing protocols in the program XPLOR (Brünger, A. T. (1993). XPLOR (Version 3.1): A System for X-ray Crystallography and NMR (Yale University Press, New Haven, Conn.)) were used.
New electron density at the expected active site could in all cases be interpreted with flexible, three-dimensional models of the inhibitors as generated in the program […] (Biosym Technologies (1993). Insight II User Guide, Version 2.2.0. San Diego). Solvent positions were also identified from these electron density maps and side chains of the protein were also sometimes manually adjusted.
Final refinements of the structure were carried out with inclusion of inhibitor and solvent ligands. In the refinements, 10% of the data was set aside for cross validation by evaluation of Rfree (A. T. Brünger, “Free R Value: a novel statistical quantity for accessing the accuracy of crystal structures,” Nature 355, 472-475 (1992)).

cancer-specific antigens = conditions: meta analysis of Phase I/II studies; advanced, treatment-refractory solid tumor cancers (colorectal, pancreatic, ovarian, prostate); cited from earlier work
[2] = clinical trials in cancer patients; cited from earlier work

T1 sequence (P22894 105-262): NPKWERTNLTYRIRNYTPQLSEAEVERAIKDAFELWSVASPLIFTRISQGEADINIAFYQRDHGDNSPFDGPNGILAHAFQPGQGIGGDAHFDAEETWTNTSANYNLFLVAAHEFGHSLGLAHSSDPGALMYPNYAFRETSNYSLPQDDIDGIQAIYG

Compound	effect on conformation of the amino acid backbone of the S1' pocket of MMP-8 [1]	effect on rise of cancer-specific antigens used as surrogate markers for biological activity (cancer-specific antigens)	most common drug-related toxicity [2]
CCCCCc1ccc(C(=O)Nc2ccc(S(=O)(=O)N(CCN3CCOCC3)[C@@H](C(=O)NO)C(C)C)cc2)cc1 [Compound X, R-N-[4-[[[1-(hydroxyamino)carbonyl]-2-methylpropyl][2-(4-morpholinyl)ethyl]amino]-sulfonyl]phenyl]-4-pentylbenzamide, monohydrochloride]	causes the backbone to deform significantly		
CCCCCCc1ccc(C(=O)Nc2ccc(S(=O)(=O)N(CCN3CCOCC3)[C@@H](C(=O)NO)C(C)C)cc2)cc1 [Compound XI, (R)-4-hexyl-N-[4-[[[1-(hydroxyamino)-carbonyl]-2-methylpropyl][2-(4-morpholinyl)ethyl]amino]sulfonyl]-phenylbenzamide, monohydrochloride]	causes the backbone to deform significantly		
CC(O)(CS(=O)(=O)c1ccc(Oc2ccccc2)cc1)C(=O)NO (stereo not shown) [Compound XIV, reference compound]	essentially no effect on the conformation of the amino acid backbone		
CCCCCc1ccc(C(=O)Nc2ccc(S(=O)(=O)N(CCN3CCOCC3)[C@@H](C(=O)O)C(C)C)cc2)cc1 [IX, N-[2-(4-morpholinyl)ethyl]-N-[[4-[(4-pentylbenzoyl)amino]phenyl]sulfonyl]-D-valine]	causes the backbone to deform significantly		
CCCc1ccc(C(=O)Nc2ccc(S(=O)(=O)N[C@@H](C(=O)O)C(C)C)cc2)cc1 [XII]	essentially no effect on the conformation of the amino acid backbone		
CNC(=O)[C@@H](NC(=O)[C@H](CC(C)C)[C@H](O)C(=O)NO)C(C)(C)C [marimastat]		dose-related reduction in the rise of cancer-specific antigens	musculoskeletal pain and stiffness
